Structures can show the parent of a compound that is named as a salt.
Tests used:
[1] = target: T1, α2δ subunit derived from porcine brain tissue (Sus scrofa, UniProt A0A287BIN3); test: radioligand binding assay using [3H]gabapentin and the α2δ subunit; settings: read-out: IC50 (μM) at α2δ Binding Site
T1 construct: the α2δ subunit derived from porcine brain tissue was used; from tissue; host or cells: porcine brain tissue

[2] = tested on: carrageenin-induced hyperalgesia in the rat paw; test: Carrageenin-induced hyperalgesia, rat paw pressure test (Randall-Selitto); type: in vivo, rat (male Sprague-Dawley); settings: dosed orally at 30 mg/kg
Description: Carrageenin-Induced Hyperalgesia
Nociceptive pressure thresholds were measured in the rat paw pressure test using an analgesimeter (Randall-Selitto method: Randall L. O. and Selitto J. J., “A method for measurement of analgesic activity on inflamed tissue,” Arch. Int. Pharmacodyn., 1957;4:409-419). Male Sprague-Dawley rats (70-90 g) were trained on this apparatus before the test day. Pressure was gradually applied to the hind paw of each rat and nociceptive thresholds were determined as the pressure (g) required to elicit paw withdrawal. A cutoff point of 250 g was used to prevent any tissue damage to the paw. On the test day, two to three baseline measurements were taken before animals were administered 100 μL of 2% carrageenin by intraplantar injection into the right hind paw.
(R)-2-Aza-spiro[4.5]decane-4-carboxylic acid hydrochloride was tested in the above carrageenan-induced hyperalgesia model. The compound was dosed orally at 30 mg/kg, and 1 hour postdose gave a percent of maximum possible effect (MPE) of 53%. At 2 hours postdose, it gave only 4.6% of MPE.

T1 sequence (A0A287BIN3 25-1109): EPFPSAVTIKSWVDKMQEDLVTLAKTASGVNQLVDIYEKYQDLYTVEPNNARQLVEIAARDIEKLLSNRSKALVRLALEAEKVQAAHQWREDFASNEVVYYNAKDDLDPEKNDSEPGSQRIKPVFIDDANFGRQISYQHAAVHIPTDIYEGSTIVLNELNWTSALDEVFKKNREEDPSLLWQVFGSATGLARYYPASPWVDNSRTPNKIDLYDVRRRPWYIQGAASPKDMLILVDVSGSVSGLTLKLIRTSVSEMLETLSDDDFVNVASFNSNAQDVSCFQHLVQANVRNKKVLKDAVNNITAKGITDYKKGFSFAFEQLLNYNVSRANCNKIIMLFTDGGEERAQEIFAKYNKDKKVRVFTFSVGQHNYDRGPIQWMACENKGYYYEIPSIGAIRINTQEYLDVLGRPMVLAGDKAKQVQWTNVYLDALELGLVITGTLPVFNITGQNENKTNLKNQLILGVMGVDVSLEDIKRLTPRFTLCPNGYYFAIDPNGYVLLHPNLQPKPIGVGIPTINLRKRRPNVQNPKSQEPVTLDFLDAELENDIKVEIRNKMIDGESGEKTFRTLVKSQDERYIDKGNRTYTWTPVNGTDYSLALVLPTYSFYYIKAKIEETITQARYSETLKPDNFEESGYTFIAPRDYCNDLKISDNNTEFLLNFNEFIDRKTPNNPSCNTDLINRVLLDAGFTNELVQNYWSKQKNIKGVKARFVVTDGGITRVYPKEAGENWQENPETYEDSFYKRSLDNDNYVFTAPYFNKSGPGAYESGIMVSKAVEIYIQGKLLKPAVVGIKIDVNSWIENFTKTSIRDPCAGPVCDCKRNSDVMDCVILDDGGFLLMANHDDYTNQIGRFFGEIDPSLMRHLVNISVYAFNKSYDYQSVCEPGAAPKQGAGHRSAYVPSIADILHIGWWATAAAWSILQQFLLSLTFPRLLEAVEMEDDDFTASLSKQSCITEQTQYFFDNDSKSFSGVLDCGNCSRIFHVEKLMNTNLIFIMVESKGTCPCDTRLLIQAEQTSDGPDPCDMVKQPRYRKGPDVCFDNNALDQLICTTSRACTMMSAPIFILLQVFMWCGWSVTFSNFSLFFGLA

SMILES	IC50 [1]	percent of maximum possible effect (MPE) ([2]; 1 hour postdose)	percent of maximum possible effect (MPE) ([2]; 2 hours postdose)	melting point
Cl.O=C(O)[C@H]1CNCC12CCCCC2 [(R)-2-Aza-spiro[4.5]decane-4-carboxylic acid hydrochloride]	0.16 µM	53%	4.6%	
O=C(O)C1CNCC12C1CC3CC(C1)CC2C3 (stereo not drawn) [Spiro[pyrrolidine-3,2′-tricyclo[3.3.1.1^3,7]decane]-4-carboxylic acid]	0.42 µM			
O=C(O)[C@@H]1CNCC12CCCCC2 [(S)-2-Aza-spiro[4.5]decane-4-carboxylic acid hydrochloride]	> 10 µM			
Cl.O=C(O)C1NCC12CCCCC2 (racemic) [(±)-2-Aza-spiro[3.5]nonane-1-carboxylic acid hydrochloride]	1.5 µM			163 to 165 °C
O=C(O)C1CNCC12C1CCCC2CCC1 (stereo not drawn) [Spiro[bicyclo[3.3.1]nonane-9,3′-pyrrolidine]-4′-carboxylic acid]	0.57 µM			
O=C(O)C1CNCC12CCCCC2 (racemic) [(±)-2-Aza-spiro[4.5]decane-4-carboxylic acid hydrochloride]	0.35 µM			
